# Test results taken from PubChem BioAssay (NCI).
#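 The compound was tested at five concentrations on cells cultured in 96-well plates, with a 48-hour exposure period. Here, GI50 denotes the concentration required for 50% inhibition of growth. The concentration for full growth arrest is given as TGI.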
# Key:
# Test in all cases: NCI-60 cell line screen, 48 h
# [1] = tested on: NCI-H522 lung
# [2] = tested on: DU-145 prostate
# [3] = tested on: UACC-257 melanoma
# [4] = tested on: OVCAR-4 ovarian
# [5] = tested on: T-47D breast
# [6] = tested on: CAKI-1 renal
# [7] = tested on: A498 renal
# [8] = tested on: SNB-75 CNS
# [9] = tested on: U251 CNS
# [10] = tested on: HOP-92 NSCLC
# [11] = tested on: EKVX NSCLC
# [12] = tested on: OVCAR-5 ovarian
# [13] = tested on: SN12C renal
# [14] = tested on: HS 578T breast
# [15] = tested on: HT29 colon
# [16] = tested on: SK-MEL-5 melanoma
# [17] = tested on: IGROV1 ovarian
# [18] = tested on: SK-MEL-28 melanoma
# [19] = tested on: NCI/ADR-RES ovarian
# [20] = tested on: SF-268 CNS
# [21] = tested on: CCRF-CEM leukemia
# [22] = tested on: UO-31 renal
# [23] = tested on: SF-295 CNS
# [24] = tested on: UACC-62 melanoma
# [25] = tested on: RPMI-8226 leukemia
# [26] = tested on: HCT-15 colon
# [27] = tested on: SF-539 CNS
# [28] = tested on: COLO 205 colon
# [29] = tested on: KM12 colon
# [30] = tested on: NCI-H460 lung
# [31] = tested on: MOLT-4 leukemia
# [32] = tested on: MDA-MB-435
# [33] = tested on: NCI-H23 lung
# [34] = tested on: RXF 393 renal
# [35] = tested on: 786-0 renal
# [36] = tested on: SK-MEL-2 melanoma
# [37] = tested on: MDA-MB-231 breast
# [38] = tested on: OVCAR-8 ovarian
# [39] = tested on: SW-620 colon
# [40] = tested on: TK-10 renal
# [41] = tested on: A549 NSCLC
# [42] = tested on: HCT-116 colon
# [43] = tested on: ACHN renal
# [44] = tested on: SNB-19 CNS
# [45] = tested on: MALME-3M melanoma
# [46] = tested on: SK-OV-3 ovarian
# [47] = tested on: K-562 leukemia
# [48] = tested on: M14 melanoma
# [49] = tested on: BT-549 breast
# [50] = tested on: PC-3 prostate
# [51] = tested on: SR leukemia
# [52] = tested on: HL-60(TB) leukemia
# [53] = tested on: LOX IMVI melanoma
# [54] = tested on: MCF7 breast
# [55] = tested on: OVCAR-3 ovarian
# [56] = tested on: HCC-2998 colon
# [57] = tested on: HOP-62 NSCLC
structure (smiles),measurement,setting,value
FC(F)=C(c1ccc(-c2ccc(Cl)cc2)cc1)C(F)(F)F,TGI,[1],36.6 µM
same,TGI,[2],34.6 µM
same,TGI,[3],37.5 µM
same,TGI,[4],33.5 µM
same,TGI,[5],76.8 µM
same,TGI,[6],46.3 µM
same,TGI,[7],31.9 µM
same,TGI,[8],25.6 µM
same,TGI,[9],31.4 µM
same,TGI,[10],33.4 µM
same,TGI,[11],41.5 µM
same,TGI,[12],31.3 µM
same,TGI,[13],45.4 µM
same,TGI,[14],68.7 µM
same,TGI,[15],67.4 µM
same,TGI,[16],32.9 µM
same,TGI,[17],33.9 µM
same,TGI,[18],28.4 µM
same,TGI,[19],63.8 µM
same,TGI,[20],56.3 µM
same,TGI,[21],62.1 µM
same,TGI,[22],31 µM
same,TGI,[23],56.7 µM
same,TGI,[24],38.6 µM
same,TGI,[25],51.8 µM
same,TGI,[26],42.2 µM
same,TGI,[27],45.3 µM
same,TGI,[28],36.1 µM
same,TGI,[29],36.7 µM
same,TGI,[30],33.7 µM
same,TGI,[31],> 100 µM
same,TGI,[32],49.4 µM
same,TGI,[33],35.4 µM
same,TGI,[34],40.9 µM
same,TGI,[35],37.8 µM
same,TGI,[36],42.5 µM
same,TGI,[37],46.3 µM
same,TGI,[38],57.9 µM
same,TGI,[39],40.3 µM
same,TGI,[40],29.4 µM
same,TGI,[41],37.4 µM
same,TGI,[42],32 µM
same,TGI,[43],31.1 µM
same,TGI,[44],36.9 µM
same,TGI,[45],31.3 µM
same,TGI,[46],41.2 µM
same,TGI,[47],71.9 µM
same,TGI,[48],36.1 µM
same,TGI,[49],39.3 µM
same,TGI,[50],32.5 µM
same,TGI,[51],52.4 µM
same,TGI,[52],> 100 µM
Cc1ccc2/c(=C/c3ccc(N(C)C)cc3)c3cc(-c4ccccc4)[n+](C)n3c2c1,GI50,[1],0.0547 µM
same,TGI,[1],> 100 µM
same,GI50,[2],0.0473 µM
same,TGI,[2],4.37 µM
same,GI50,[3],0.0307 µM
same,TGI,[3],1.71 µM
same,GI50,[53],< 0.01 µM
same,TGI,[53],> 100 µM
same,GI50,[4],0.816 µM
same,TGI,[4],20.2 µM
same,GI50,[5],0.0956 µM
same,TGI,[5],> 100 µM
same,GI50,[6],1.57 µM
same,TGI,[6],6.58 µM
same,GI50,[54],0.036 µM
same,TGI,[54],11.3 µM
same,GI50,[8],0.144 µM
same,TGI,[8],2.02 µM
same,GI50,[9],< 0.01 µM
same,GI50,[11],0.0643 µM
same,TGI,[11],7.95 µM
same,GI50,[12],0.456 µM
same,TGI,[12],4.74 µM
same,GI50,[14],0.035 µM
same,TGI,[14],2.89 µM
same,GI50,[15],0.0411 µM
same,TGI,[15],> 100 µM
same,GI50,[16],0.0344 µM
same,TGI,[16],0.169 µM
same,GI50,[17],0.501 µM
same,GI50,[18],0.146 µM
same,TGI,[18],3.7 µM
same,GI50,[19],6.41 µM
same,TGI,[19],> 100 µM
same,GI50,[21],0.0269 µM
same,GI50,[22],0.92 µM
same,GI50,[23],0.352 µM
same,TGI,[23],3.31 µM
same,GI50,[24],0.0292 µM
same,TGI,[24],0.252 µM
same,GI50,[55],1.1 µM
same,TGI,[55],47.5 µM
same,GI50,[26],0.824 µM
same,TGI,[26],> 100 µM
same,GI50,[27],0.0456 µM
same,TGI,[27],2.21 µM
same,GI50,[29],0.0209 µM
same,TGI,[29],0.12 µM
same,GI50,[30],0.025 µM
same,TGI,[30],1.38 µM
same,GI50,[31],0.0383 µM
same,TGI,[31],> 100 µM
same,GI50,[32],0.037 µM
same,TGI,[32],1.66 µM
same,GI50,[33],0.0836 µM
same,TGI,[33],1.9 µM
same,GI50,[35],0.305 µM
same,TGI,[35],2.92 µM
same,GI50,[37],0.0337 µM
same,TGI,[37],1.06 µM
same,GI50,[39],0.186 µM
same,TGI,[39],1.51 µM
same,GI50,[40],0.266 µM
same,TGI,[40],2.36 µM
same,GI50,[41],0.0987 µM
same,TGI,[41],> 100 µM
same,GI50,[42],0.0406 µM
same,TGI,[42],> 100 µM
same,GI50,[43],0.175 µM
same,GI50,[44],0.0969 µM
same,TGI,[44],> 44.1 µM
same,GI50,[45],0.0285 µM
same,TGI,[45],1.17 µM
same,GI50,[47],< 0.0255 µM
same,TGI,[47],> 100 µM
same,GI50,[48],0.0591 µM
same,TGI,[48],2.54 µM
same,GI50,[50],0.0251 µM
same,TGI,[50],3.9 µM
same,GI50,[51],< 0.01 µM
same,GI50,[56],< 0.0199 µM
same,TGI,[56],0.197 µM
same,GI50,[57],0.257 µM
same,TGI,[57],7.33 µM
